Molecular target: Urease (Canavalia ensiformis, UniProt P07374)
Experiment: Urease Inhibition Assay
Procedure: Reaction mixtures comprising 25 μL of enzyme (jack bean urease) solution and 55 μL of buffers containing 100 mM urea were incubated with 5 μL of test compounds (0.5 mM concentration) at 30°C for 15 min in 96-well plates. Urease activity was determined by measuring ammonia production using the indophenol method as described by weather burn14. Briefly, 45 μL each phenol reagent (1% w/v phenol and 0.005% w/v sodium nitroprusside) and 70 μL of alkali reagent (0.5% w/v NaOH and0.1% active chloride NaOCl) were added to each well. The increasing absorbance at 630 nm was measured after 50 min, using a microplate reader (Molecular Device). All reactions were performed in triplicate in a final volume of 200 μL.

Chain of Urease (P07374 whole entry): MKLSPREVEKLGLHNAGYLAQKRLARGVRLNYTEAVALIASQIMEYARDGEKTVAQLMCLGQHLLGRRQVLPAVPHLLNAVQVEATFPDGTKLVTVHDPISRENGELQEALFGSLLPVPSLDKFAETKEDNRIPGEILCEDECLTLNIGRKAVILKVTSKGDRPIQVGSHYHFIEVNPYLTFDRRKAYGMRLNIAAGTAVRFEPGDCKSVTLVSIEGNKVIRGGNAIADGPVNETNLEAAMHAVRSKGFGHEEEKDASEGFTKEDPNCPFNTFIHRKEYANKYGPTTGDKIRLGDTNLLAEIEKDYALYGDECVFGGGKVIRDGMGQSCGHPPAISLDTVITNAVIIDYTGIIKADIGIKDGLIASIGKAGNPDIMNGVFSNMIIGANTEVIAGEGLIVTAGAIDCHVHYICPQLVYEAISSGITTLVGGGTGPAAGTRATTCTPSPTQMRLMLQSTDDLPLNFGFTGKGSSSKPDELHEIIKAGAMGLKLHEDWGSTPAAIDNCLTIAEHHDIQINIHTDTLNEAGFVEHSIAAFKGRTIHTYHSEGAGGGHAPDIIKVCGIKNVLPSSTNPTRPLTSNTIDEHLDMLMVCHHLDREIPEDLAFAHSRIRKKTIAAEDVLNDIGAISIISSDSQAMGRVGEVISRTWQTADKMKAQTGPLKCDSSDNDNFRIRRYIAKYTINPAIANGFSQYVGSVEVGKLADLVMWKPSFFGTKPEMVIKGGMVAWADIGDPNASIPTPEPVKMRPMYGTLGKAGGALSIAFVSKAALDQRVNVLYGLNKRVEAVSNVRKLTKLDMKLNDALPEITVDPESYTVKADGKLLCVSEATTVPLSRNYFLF

Row | Compound | IC50
1 | CC(O)CCCCC(=O)c1c(O)cc(O)cc1O (configuration not stated) [Indigoferin-C (3)] | 23.3 µM
2 | CC(C)CCCCc1ccc(O[C@@H]2OC(CO)[C@H](O)[C@@H](O)C2O)cc1 (some centres not stated) [Indigoferin-B (2)] | 29.7 µM
